From US12312355B2, “1H-[1, 2, 3]triazolo[4, 5-h] quinazoline compounds acting as protein kinase inhibitors” (CHENGDU CYNOGEN BIO-PHARMACEUTICAL TECHNOLOGY CO., LTD., priority 2019, dated 2025)
Structures can show the parent of a compound that is named as a salt.

Legend:
Type in all cases: biochemical
Conditions in all cases: class symbols
CDK4/cyclin D3 = CDK4/cyclin D3 (Homo sapiens (Human), UniProt P11802); assay: Kinase activity assay, Caliper Mobility Shift Assay, CDK4/cyclin D3
Description: The inhibitory effect of the compound on the kinase CDK4/cyclin D3 was tested by the Caliper Mobility Shift Assay method. The final test concentration of the compound was 10 concentrations, which started from […] and were obtained by three-fold dilution. 5 μL of 5-fold final concentration compound and 10 μL of CDK4/Cyclin D3 kinase solution with final concentration of 10 nM were added to the 384-well reaction plate respectively, and pre incubated at room temperature for 10 minutes (the negative control well contained 10 μL kinase buffer and 5 μL 5% DMSO; the positive control well contained 10 μL kinase solution and 5 μL 5% DMSO). The mixture of 10 μL ATP with a final concentration of 250 μM and the corresponding substrate peptide was added to initiate the reaction, and the mixture was reacted at room temperature for 150 minutes. 30 μL of stop test solution containing EDTA was added to stop the kinase reaction. Conversion rate was read by Caliper EZ Reader. Conversion inhibition rate %=(average conversion rate of positive control %−sample conversion rate %)/(average conversion rate of positive control %−average conversion rate of negative control %). Wherein: the negative control well represents conversion rate reading of wells without enzyme activity; the positive control well represents conversion rate reading of wells without compound inhibition. The log value of concentration was taken as the X-axis and the percentage inhibition rate was the Y-axis. […] Calculation formula: Y=Bottom+(Top−Bottom)/(1+10^((Log IC50−X)*HillSlope)).

CDK2/cyclin A2 = CDK2/cyclin A2 (Homo sapiens (Human), UniProt P24941); assay: Kinase activity assay, Caliper Mobility Shift Assay, CDK2/cyclin A2
Description: The inhibitory effect of the compound on the kinase CDK4/cyclin D3 was tested by the Caliper Mobility Shift Assay method. The final test concentration of the compound was 10 concentrations, which started from […] and were obtained by three-fold dilution. 5 μL of 5-fold final concentration compound and 10 μL of CDK4/Cyclin D3 kinase solution with final concentration of 10 nM were added to the 384-well reaction plate respectively, and pre incubated at room temperature for 10 minutes (the negative control well contained 10 μL kinase buffer and 5 μL 5% DMSO; the positive control well contained 10 μL kinase solution and 5 μL 5% DMSO). The mixture of 10 μL ATP with a final concentration of 250 μM and the corresponding substrate peptide was added to initiate the reaction, and the mixture was reacted at room temperature for 150 minutes. 30 μL of stop test solution containing EDTA was added to stop the kinase reaction. Conversion rate was read by Caliper EZ Reader. Conversion inhibition rate %=(average conversion rate of positive control %−sample conversion rate %)/(average conversion rate of positive control %−average conversion rate of negative control %). Wherein: the negative control well represents conversion rate reading of wells without enzyme activity; the positive control well represents conversion rate reading of wells without compound inhibition. The log value of concentration was taken as the X-axis and the percentage inhibition rate was the Y-axis. The dose-effect curve was fitted by log(inhibitor) vs. response—Variable slope of the analysis software GraphPad Prism 5, and the IC50 value of each compound on the enzyme activity was obtained. Calculation formula: Y=Bottom+(Top−Bottom)/(1+10^((Log IC50−X)*HillSlope)).
The IC50 values of the compounds of the present disclosure for CDK6/cyclin D3 and CDK2/cyclin A2 were tested in a similar manner.

CDK6/cyclin D3 = CDK6/cyclin D3 (Homo sapiens (Human), UniProt Q00534); assay: Kinase activity assay, Caliper Mobility Shift Assay, CDK6/cyclin D3
CDK6/cyclin D3, sequence (Q00534 whole entry, species assumed): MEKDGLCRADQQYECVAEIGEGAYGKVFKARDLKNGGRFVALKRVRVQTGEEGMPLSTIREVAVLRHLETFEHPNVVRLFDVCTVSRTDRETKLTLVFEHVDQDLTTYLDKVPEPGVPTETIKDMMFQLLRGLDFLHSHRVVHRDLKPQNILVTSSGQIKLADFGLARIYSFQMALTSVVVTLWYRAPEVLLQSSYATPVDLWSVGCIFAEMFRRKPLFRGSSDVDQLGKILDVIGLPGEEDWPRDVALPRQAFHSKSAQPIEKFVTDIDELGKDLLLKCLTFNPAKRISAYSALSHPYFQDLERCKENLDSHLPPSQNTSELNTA
CDK6/cyclin D3, sequence (P30281 whole entry partner, species assumed): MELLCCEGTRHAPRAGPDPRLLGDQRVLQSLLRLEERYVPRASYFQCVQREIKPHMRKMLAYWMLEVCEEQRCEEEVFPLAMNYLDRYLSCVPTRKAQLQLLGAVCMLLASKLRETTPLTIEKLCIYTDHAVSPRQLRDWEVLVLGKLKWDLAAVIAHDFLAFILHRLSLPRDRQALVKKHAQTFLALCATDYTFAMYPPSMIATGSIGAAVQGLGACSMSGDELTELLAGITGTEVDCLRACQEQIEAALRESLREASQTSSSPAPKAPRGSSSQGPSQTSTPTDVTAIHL

CDK4/cyclin D3, sequence (P11802 whole entry, species assumed): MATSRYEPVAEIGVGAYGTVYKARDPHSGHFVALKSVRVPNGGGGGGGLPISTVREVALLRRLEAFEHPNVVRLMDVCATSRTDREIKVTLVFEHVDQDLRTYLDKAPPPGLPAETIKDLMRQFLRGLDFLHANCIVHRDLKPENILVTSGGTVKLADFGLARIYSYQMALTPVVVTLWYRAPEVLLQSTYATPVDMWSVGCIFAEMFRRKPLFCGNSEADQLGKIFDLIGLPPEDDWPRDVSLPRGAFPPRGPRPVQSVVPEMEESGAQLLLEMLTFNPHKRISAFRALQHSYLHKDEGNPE
CDK4/cyclin D3, sequence (P30281 whole entry partner, species assumed): as the sequence (P30281 whole entry partner, species assumed) above

Row | Structure (SMILES) | IC50 (CDK4/cyclin D3) | IC50 (CDK2/cyclin A2) | IC50 (CDK6/cyclin D3)
1 | CC(C)n1nnc2ccc3cnc(Nc4ccc(N5CCC(CCCO)CC5)cc4)nc3c21 [Compound I-27, 3-(1-(4-((1-isopropyl-1H-[1,2,3]triazolo [4,5-h]quinazolin-8-yl)amino)phenyl)pi-peridin-4-yl)propan-1-ol] | 50 to 100 nM | 50 to 100 nM | 50 to 100 nM
2 | CC(C)n1nnc2ccc3cnc(Nc4ccc(N5CCOCC5)cc4)nc3c21 [Compound I-26, 1-Isopropyl-N-(4-morpholinophenyl)-1H-[1,2,3]triazolo[4,5-h]quinazolin-8-amine] | < 10 nM | < 10 nM | < 10 nM
3 | CC(C)n1nnc2ccc3cnc(Nc4ccc(N5CCNCC5)cc4)nc3c21 [Compound I-24, 1-isopropyl-N-(4-(piperazin-1-yl)phenyl)-1H-[1,2,3]triazolo[4,5-h]quinazolin-8-amine hydrochloride] | < 10 nM | < 10 nM | < 10 nM
4 | COc1cc(N2CCN(C)CC2)ccc1Nc1ncc2ccc3nnn(C(C)C)c3c2n1 [Compound I-31, 1-Isopropyl-N-(2-methoxy-4-(4-methyl-piperazin-1-yl)phenyl)-1H-[1,2,3]triazo-lo[4,5-h]quinazolin-8-amine] | 50 to 100 nM | 50 to 100 nM | 50 to 100 nM
5 | COc1cc(N2CCNCC2)ccc1Nc1ncc2ccc3nnn(C(C)C)c3c2n1 [Compound I-30, 1-Isopropyl-N-(2-methoxy-4-(piperazin-1-yl)phenyl)-1H-[1,2,3]triazolo[4,5-h]quin-azolin-8-amine hydrochloride] | < 10 nM | < 10 nM | < 10 nM
6 | CC(C)n1nnc2ccc3cnc(Nc4ccc(N5CCOCC5)cc4F)nc3c21 [Compound I-29, N-(2-Fluoro-4-morpholinophenyl)-1-iso-propyl-1H-[1,2,3]triazolo[4,5-h]quinazo-lin-8-amine] | 50 to 100 nM | 50 to 100 nM | 50 to 100 nM
7 | CC(C)n1nnc2ccc3cnc(Nc4ccc(N5CCNCC5)cc4F)nc3c21 [Compound I-28, N-(2-Fluoro-4-(piperazin-1-yl)phenyl)-1-isopropyl-1H-[1,2,3]triazolo[4,5-h]quin-azolin-8-amine hydrochloride] | < 10 nM | < 10 nM | < 10 nM
8 | CCN1CCN(c2ccc(Nc3ncc4ccc5nnn(C(C)C)c5c4n3)cc2)CC1 [Compound I-25, N-(4-(4-Ethylpiperazin-1-yl)phenyl)-1-iso-propyl-1H-[1,2,3]triazolo[4,5-h]quin-azolin-8-amine] | < 10 nM | < 10 nM | < 10 nM

More lines, now with the values ahead:

Row | IC50 (CDK4/cyclin D3) | IC50 (CDK2/cyclin A2) | IC50 (CDK6/cyclin D3) | Structure (SMILES)
9 | < 10 nM | < 10 nM | < 10 nM | CC(C)n1nnc2ccc3cnc(Nc4ccc(C(=O)N5CCNCC5)cc4)nc3c21 [Compound I-39, (4-((1-Isopropyl-1H-[1,2,3]triazolo[4,5-h]quinazolin-8-yl)amino)phenyl)(piper-azin-1-yl)methanone hydrochloride]
10 | < 10 nM | < 10 nM | < 10 nM | CC(C)n1nnc2ccc3cnc(Nc4cccc(S(N)(=O)=O)c4)nc3c21 [Compound I-36, 3-((1-isopropyl-1H-[1,2,3]triazolo[4,5-h]quinazolin-8-yl)amino)benzenesulfonamide hydrochloride]
11 | < 10 nM | < 10 nM | < 10 nM | CC(C)n1nnc2ccc3cnc(Nc4ccc(N(CCN5CCOCC5)S(C)(=O)=O)cc4)nc3c21 [Compound I-37, N-(4-((1-Isopropyl-1H-[1,2,3]triazolo[4,5-h]quinazolin-8-yl)amino)phenyl)-N-(2-morpholinoethyl)methanesulfonamide]
12 | < 10 nM | < 10 nM | < 10 nM | CC(C)n1nnc2ccc3cnc(Nc4ccc(N5CCNCC5)c(F)c4)nc3c21 [Compound I-32, N-(3-Fluoro-4-(piperazin-1-yl)phenyl)-1-isopropyl-1H-[1,2,3]triazolo[4,5-h]quin-azolin-8-amine hydrochloride]
13 | < 10 nM | < 10 nM | < 10 nM | CC(C)n1nnc2ccc3cnc(Nc4ccc(C(=O)N5CCN(C)CC5)cc4)nc3c21 [Compound I-40]
14 | < 10 nM | < 10 nM | < 10 nM | CCN1CCN(c2ccc(Nc3ncc4ccc5nnn(C(C)C)c5c4n3)cc2F)CC1 [Compound I-34, N-(4-(4-Ethylpiperazin-1-yl)-3-fluorophe-nyl)-1-isopropyl-1H-[1,2,3]triazolo[4,5-h]quinazolin-8-amine hydrochloride]
15 | < 10 nM | < 10 nM | < 10 nM | CC(C)n1nnc2ccc3cnc(Nc4ccc(OCCN(C)C)cc4)nc3c21 [Compound I-38, N-(4-(2-(Dimethylamino)ethoxy)phenyl)-1-isopropyl-1H-[1,2,3]triazolo[4,5-h]quin-azolin-8-amine]
